Test system: velvetleaf
Test: Upland post-emergence treatment test, velvetleaf
Type: in vivo, velvetleaf (Abutilon theophrasti)
Details: post-emergence spray at 3-4 leaf stage, 80 g/ha, 30th day after treatment, greenhouse
Description: (§1) 97 Parts by weight of talc (trade name: Zeaklite, supplied by Zeaklite Industry) as a carrier, 1.5 parts by weight of alkylarylsulfonic acid salt (trade name: Neoplex, supplied by Kao-Atlas K.K.) as a surfactant and 1.5 parts by weight of a nonionic and anionic surfactant (trade names Sorpol 800A, supplied by Toho Chemical Co., Ltd.) were uniformly pulverized and mixed to prepare a carrier for a wettable powder.
(§2) 90 Parts by weight of the above carrier for a wettable powder and 10 parts by weight of one of the compounds of the present invention were uniformly pulverized and mixed to obtain herbicides. Further, in Comparative Herbicide Examples, comparative herbicides were also prepared from the following compounds (A) and (B) in the same manner.
(§3) Herbicidal efficacy and phytotoxicity to crops were determined on the basis of the ratio of remaining plant weight to plant weight in non-treated plot=(remaining plant weight in treated plot/plant weight in non-treated-plot)×100. The ratings were applied to the following biological tests.
(§4) Seeds of weeds velvetleaf, redroot pigweed, common ragweed, green foxtail and large crabgrass and seeds of corn were sown in 1/5,000-are Wagner pots filled with upland soil, and covered with upland soil. The seeds were grown in a greenhouse, and at the stage of 3˜4 leaves of these plants, a predetermined amount of the herbicide prepared in the above (1) was suspended in water, and the suspension was uniformly sprayed onto leaf and stalk portions at a rate of 2,000 liters/hectare. Then, the plants were grown in the greenhouse, and on the 30th day after the treatment, the herbicide was evaluated for herbicidal efficacy and phytotoxicity to the corn on the basis of the ratings shown in (2).
Further: ranges in brackets are in %.

Compound | Herbicidal Efficacy AA = Velvetleaf
CCc1ccc(S(=O)(=O)Oc2c(C(=O)c3ccc4c(c3C)C(C)(C)CS4(=O)=O)cnn2C)cc1 [Compound 19] | 5 (0)
Cc1c(C(=O)c2cnn(C)c2OS(=O)(=O)c2ccc(Cl)cc2)ccc2c1C(C)(C)CS2(=O)=O [Compound 21] | 5 (0)
Cc1c(C(=O)c2cnn(C)c2OS(=O)(=O)c2ccc(Cl)cc2Cl)ccc2c1C(C)(C)CS2(=O)=O [Compound 24] | 5 (0)
COc1ccc(S(=O)(=O)Oc2c(C(=O)c3ccc4c(c3C)C(C)(C)CS4(=O)=O)cnn2C)cc1 [Compound 25] | 5 (0)
Cc1c(C(=O)c2cnn(C)c2OS(=O)(=O)c2ccc([N+](=O)[O-])cc2)ccc2c1C(C)(C)CS2(=O)=O [Compound 26] | 5 (0)
Cc1cc(C)c(S(=O)(=O)Oc2c(C(=O)c3ccc4c(c3C)C(C)(C)CS4(=O)=O)cnn2C)c(C)c1 [Compound 27] | 5 (0)
CCC(=O)Oc1c(C(=O)c2ccc3c(c2C)C(C)(C)CS3(=O)=O)cnn1C [Compound 29] | 5 (0)
Cc1ccc(C(=O)Oc2c(C(=O)c3ccc4c(c3C)C(C)(C)CS4(=O)=O)cnn2C)cc1 [Compound 42] | 5 (0)
CC(C)N.Cc1c(C(=O)c2cnn(C)c2O)ccc2c1C(C)(C)CS2(=O)=O [Compound 51] | 5 (0)

Test system: redroot pigweed
Test: Upland post-emergence treatment test, redroot pigweed
Type: in vivo, redroot pigweed (Amaranthus retroflexus)
Details: post-emergence spray at 3-4 leaf stage, 80 g/ha, 30th day after treatment, greenhouse
Description: as §1, §2, §3, §4

Compound | Herbicidal Efficacy CC = Redroot Pigweed
CCc1ccc(S(=O)(=O)Oc2c(C(=O)c3ccc4c(c3C)C(C)(C)CS4(=O)=O)cnn2C)cc1 [Compound 19] | 5 (0)
Cc1c(C(=O)c2cnn(C)c2OS(=O)(=O)c2ccc(Cl)cc2)ccc2c1C(C)(C)CS2(=O)=O [Compound 21] | 5 (0)
Cc1c(C(=O)c2cnn(C)c2OS(=O)(=O)c2ccc(Cl)cc2Cl)ccc2c1C(C)(C)CS2(=O)=O [Compound 24] | 5 (0)
COc1ccc(S(=O)(=O)Oc2c(C(=O)c3ccc4c(c3C)C(C)(C)CS4(=O)=O)cnn2C)cc1 [Compound 25] | 5 (0)
Cc1c(C(=O)c2cnn(C)c2OS(=O)(=O)c2ccc([N+](=O)[O-])cc2)ccc2c1C(C)(C)CS2(=O)=O [Compound 26] | 5 (0)
Cc1cc(C)c(S(=O)(=O)Oc2c(C(=O)c3ccc4c(c3C)C(C)(C)CS4(=O)=O)cnn2C)c(C)c1 [Compound 27] | 5 (0)
CCC(=O)Oc1c(C(=O)c2ccc3c(c2C)C(C)(C)CS3(=O)=O)cnn1C [Compound 29] | 5 (0)
Cc1ccc(C(=O)Oc2c(C(=O)c3ccc4c(c3C)C(C)(C)CS4(=O)=O)cnn2C)cc1 [Compound 42] | 5 (0)
CC(C)N.Cc1c(C(=O)c2cnn(C)c2O)ccc2c1C(C)(C)CS2(=O)=O [Compound 51] | 5 (0)

Test system: green foxtail
Test: Upland post-emergence treatment test, green foxtail
Type: in vivo, green foxtail (Setaria viridis)
Details: post-emergence spray at 3-4 leaf stage, 80 g/ha, 30th day after treatment, greenhouse
Description: as §1, §2, §3, §4

Compound | Herbicidal Efficacy EE = Green foxtail
CCc1ccc(S(=O)(=O)Oc2c(C(=O)c3ccc4c(c3C)C(C)(C)CS4(=O)=O)cnn2C)cc1 [Compound 19] | 5 (0)
Cc1c(C(=O)c2cnn(C)c2OS(=O)(=O)c2ccc(Cl)cc2)ccc2c1C(C)(C)CS2(=O)=O [Compound 21] | 5 (0)
Cc1c(C(=O)c2cnn(C)c2OS(=O)(=O)c2ccc(Cl)cc2Cl)ccc2c1C(C)(C)CS2(=O)=O [Compound 24] | 5 (0)
COc1ccc(S(=O)(=O)Oc2c(C(=O)c3ccc4c(c3C)C(C)(C)CS4(=O)=O)cnn2C)cc1 [Compound 25] | 5 (0)
Cc1c(C(=O)c2cnn(C)c2OS(=O)(=O)c2ccc([N+](=O)[O-])cc2)ccc2c1C(C)(C)CS2(=O)=O [Compound 26] | 5 (0)
Cc1cc(C)c(S(=O)(=O)Oc2c(C(=O)c3ccc4c(c3C)C(C)(C)CS4(=O)=O)cnn2C)c(C)c1 [Compound 27] | 5 (0)
CCC(=O)Oc1c(C(=O)c2ccc3c(c2C)C(C)(C)CS3(=O)=O)cnn1C [Compound 29] | 5 (0)
Cc1ccc(C(=O)Oc2c(C(=O)c3ccc4c(c3C)C(C)(C)CS4(=O)=O)cnn2C)cc1 [Compound 42] | 5 (0)
CC(C)N.Cc1c(C(=O)c2cnn(C)c2O)ccc2c1C(C)(C)CS2(=O)=O [Compound 51] | 5 (0)

Test system: large crabgrass
Test: Upland post-emergence treatment test, large crabgrass
Type: in vivo
Details: post-emergence spray at 3-4 leaf stage, 80 g/ha, 30th day after treatment, greenhouse
Description: as §1, §2, §3, §4

Compound | Herbicidal Efficacy FF = Large crabgrass
CCc1ccc(S(=O)(=O)Oc2c(C(=O)c3ccc4c(c3C)C(C)(C)CS4(=O)=O)cnn2C)cc1 [Compound 19] | 5 (0)
Cc1c(C(=O)c2cnn(C)c2OS(=O)(=O)c2ccc(Cl)cc2)ccc2c1C(C)(C)CS2(=O)=O [Compound 21] | 5 (0)
Cc1c(C(=O)c2cnn(C)c2OS(=O)(=O)c2ccc(Cl)cc2Cl)ccc2c1C(C)(C)CS2(=O)=O [Compound 24] | 5 (0)
COc1ccc(S(=O)(=O)Oc2c(C(=O)c3ccc4c(c3C)C(C)(C)CS4(=O)=O)cnn2C)cc1 [Compound 25] | 5 (0)
Cc1c(C(=O)c2cnn(C)c2OS(=O)(=O)c2ccc([N+](=O)[O-])cc2)ccc2c1C(C)(C)CS2(=O)=O [Compound 26] | 5 (0)
Cc1cc(C)c(S(=O)(=O)Oc2c(C(=O)c3ccc4c(c3C)C(C)(C)CS4(=O)=O)cnn2C)c(C)c1 [Compound 27] | 5 (0)
CCC(=O)Oc1c(C(=O)c2ccc3c(c2C)C(C)(C)CS3(=O)=O)cnn1C [Compound 29] | 5 (0)
Cc1ccc(C(=O)Oc2c(C(=O)c3ccc4c(c3C)C(C)(C)CS4(=O)=O)cnn2C)cc1 [Compound 42] | 5 (0)
CC(C)N.Cc1c(C(=O)c2cnn(C)c2O)ccc2c1C(C)(C)CS2(=O)=O [Compound 51] | 5 (0)

Test system: corn
Test: Upland post-emergence treatment test, phytotoxicity to corn
Type: in vivo
Details: post-emergence spray at 3-4 leaf stage, 80 g/ha, 30th day after treatment, greenhouse
Description: as §1, §2, §3, §4

Compound | Phytotoxicity Corn
CCc1ccc(S(=O)(=O)Oc2c(C(=O)c3ccc4c(c3C)C(C)(C)CS4(=O)=O)cnn2C)cc1 [Compound 19] | − (100)
Cc1c(C(=O)c2cnn(C)c2OS(=O)(=O)c2ccc(Cl)cc2)ccc2c1C(C)(C)CS2(=O)=O [Compound 21] | − (100)
Cc1c(C(=O)c2cnn(C)c2OS(=O)(=O)c2ccc(Cl)cc2Cl)ccc2c1C(C)(C)CS2(=O)=O [Compound 24] | − (100)
COc1ccc(S(=O)(=O)Oc2c(C(=O)c3ccc4c(c3C)C(C)(C)CS4(=O)=O)cnn2C)cc1 [Compound 25] | − (100)
Cc1c(C(=O)c2cnn(C)c2OS(=O)(=O)c2ccc([N+](=O)[O-])cc2)ccc2c1C(C)(C)CS2(=O)=O [Compound 26] | − (100)
Cc1cc(C)c(S(=O)(=O)Oc2c(C(=O)c3ccc4c(c3C)C(C)(C)CS4(=O)=O)cnn2C)c(C)c1 [Compound 27] | − (100)
CCC(=O)Oc1c(C(=O)c2ccc3c(c2C)C(C)(C)CS3(=O)=O)cnn1C [Compound 29] | − (100)
Cc1ccc(C(=O)Oc2c(C(=O)c3ccc4c(c3C)C(C)(C)CS4(=O)=O)cnn2C)cc1 [Compound 42] | − (100)
CC(C)N.Cc1c(C(=O)c2cnn(C)c2O)ccc2c1C(C)(C)CS2(=O)=O [Compound 51] | − (100)

Test system: common ragweed
Test: Upland post-emergence treatment test, common ragweed
Type: in vivo, common ragweed (Ambrosia artemisilfolia)
Details: post-emergence spray at 3-4 leaf stage, 80 g/ha, 30th day after treatment, greenhouse
Description: as §1, §2, §3, §4

Compound | Herbicidal Efficacy DD = Common ragweed
CCc1ccc(S(=O)(=O)Oc2c(C(=O)c3ccc4c(c3C)C(C)(C)CS4(=O)=O)cnn2C)cc1 [Compound 19] | 5 (0)
Cc1c(C(=O)c2cnn(C)c2OS(=O)(=O)c2ccc(Cl)cc2)ccc2c1C(C)(C)CS2(=O)=O [Compound 21] | 5 (0)
Cc1c(C(=O)c2cnn(C)c2OS(=O)(=O)c2ccc(Cl)cc2Cl)ccc2c1C(C)(C)CS2(=O)=O [Compound 24] | 5 (0)
COc1ccc(S(=O)(=O)Oc2c(C(=O)c3ccc4c(c3C)C(C)(C)CS4(=O)=O)cnn2C)cc1 [Compound 25] | 5 (0)
Cc1c(C(=O)c2cnn(C)c2OS(=O)(=O)c2ccc([N+](=O)[O-])cc2)ccc2c1C(C)(C)CS2(=O)=O [Compound 26] | 5 (0)
Cc1cc(C)c(S(=O)(=O)Oc2c(C(=O)c3ccc4c(c3C)C(C)(C)CS4(=O)=O)cnn2C)c(C)c1 [Compound 27] | 5 (0)
CCC(=O)Oc1c(C(=O)c2ccc3c(c2C)C(C)(C)CS3(=O)=O)cnn1C [Compound 29] | 5 (0)
Cc1ccc(C(=O)Oc2c(C(=O)c3ccc4c(c3C)C(C)(C)CS4(=O)=O)cnn2C)cc1 [Compound 42] | 5 (0)
CC(C)N.Cc1c(C(=O)c2cnn(C)c2O)ccc2c1C(C)(C)CS2(=O)=O [Compound 51] | 5 (0)
